Assays:
human RIPK3 = human RIPK3 (Homo sapiens (Human), UniProt Q9Y572); test: KINOMEscan binding assay, human RIPK3; details: equilibrium dissociation constant
Protocol: (§1) Binding affinity of the test compounds for human MLKL (full length), mouse MLKL (full length), human RIPK1 and human RIPK3 was determined using the KINOMEscan™ technology developed by DiscoverX (USA; http://www.discoverx.com). The assay was conducted according to manufacturer instructions.
(§2) Kinase assays. For most assays, kinase-tagged T7 phage strains were grown in parallel in 24-well blocks in an E. coli host derived from the BL21 strain. E. coli were grown to log-phase and infected with T7 phage from a frozen stock (multiplicity of infection=0.4) and incubated with shaking at 32° C. until lysis (90-150 minutes). The lysates were centrifuged (6,000×g) and filtered (0.2 μm) to remove cell debris. The remaining kinases were produced in HEK-293 cells and subsequently tagged with DNA for qPCR detection. […] The liganded beads were blocked with excess biotin and washed with blocking buffer (SeaBlock (Pierce), 1% BSA, 0.05% Tween 20, 1 mM DTT) to remove unbound ligand and to reduce non-specific phage binding. […] All reactions were performed in polypropylene 384-well plates in a final volume of 20 μL. […] The kinase concentration in the eluates was measured by qPCR.
(§3) An 11-point 3-fold serial dilution of each test compound was prepared in 100% DMSO at 100× final test concentration and subsequently diluted to 1× in the assay (final DMSO concentration=1%). Most Kos were determined using a compound top concentration=30,000 nM.
(§4) KD for each test compound was calculated with a standard dose-response curve using the Hill equation (equation (1)): […]
(§5) The Hill Slope was set to −1.
(§6) Curves were fitted using a non-linear least square fit with the Levenberg-Marquardt algorithm.

U937 cells = test: Counter screen: U937 cell viability without TSQ cocktail (off-target effect); parameters: species or system human; details: Homo sapiens, U-937, compound without TSQ cocktail, read-out: Off-target effect (IC50 cell-based assay)
Protocol: (§7) • Cell Line ID: U937 human histiocytic leukemia cell line. • Cell Concentration (cells/well): Final cell density is 20000 cells per well. • Cell growth medium: HT-RPMI medium+7.4% Fetal Bovine Serum (FBS). Cells are cultured in Corning 150 cm^2 tissue culture flasks with vented caps at 37° C./5% CO2. • Incubation: Plates were incubated at 37° C./5% CO2 in a humidified incubator for 48 hours following addition of compounds and death stimuli (TSQ cocktail). • Compound concentration: 36 μM starting concentration, 1:3 dilution, 10 point • DMSO final concentration (% v/v): 0.3%. Compounds in TSQ Cocktail (T: TNF; S: Smac Mimetic; Q: Q-VD-OPh) and their Final Concentrations: • hTNF-Fc (100 ng/ml)—produced by standard procedures as shown in Bossen et al., J. Biol. Chem., 2006, 281(20), 13964-13971. • Compound A (500 nM) —Smac mimetic, Tetralogic and SYNthesis med chem • Q-VD-OPh (10 μM) —MP Biomedicals
(§8) The cellular assay was carried out according to the following steps: • 1. Each well was prepared by sequential addition of: • a. DMSO (control; columns 1-2 and 23-24) or compound in DMSO—addition was performed using acoustic transfer of nL volumes of stock compound to give final test concentrations of 36, 12, 4, 1.3, 0.44, 0.148, 0.049, 0.016, 0.005 and 0.002 μM. All wells were backfilled with DMSO to a final total volume in the well of 100 nL. • b. Following compound/DMSO addition in step (a), 40 μL of cell suspension (5×10^5 cells/mL) was added to provide a final cell concentration of 20,000 cells per well, and • c. Following cell addition in step (b), 10 μL of 5×TSQ cocktail (except to positive controls; columns 1 and 23) was added to each well. • 2. After 48 hours, plate was removed from the 37° C. incubator and equilibrated to room temperature for 45 minutes. • 3. 15 μL of room temperature CellTitre-Glo2™ (Promega™) was added to each well. • 4. Shook plates for 2 minutes (˜600 rpm) and incubated at room temperature for 15 minutes to allow signal to stabilise. • 5. Read luminescence readout on a plate reader.
(§9) 10 point titration curves were fitted with the 4 parameter logistic nonlinear regression model and the IC50 reported reflect the inflection point of the curve for curve fitting.
(§10) • Assay involving the TSQ cocktail (T: TNF; S: Smac mimetic; Q: Q-VD-OPh): TSQ treatment ensures that cells specifically undergo necroptotic cell death. TNF activates the TNF receptor, Smac mimetic directs the signal away from proinflammatory signaling and toward the RIPK1/RIPK3-mediated cell death pathways, and Q-VD-OPh ensures that the apoptotic response is blocked leaving only the programmed necrosis response. The compounds' activity (solution in DMSO) tested in this TSQ-induced assay was evaluated by determining the number of viable cells in culture by measuring the amount of ATP present as measured by CelltiterGlo. • Counter screen: In parallel, all compounds were tested for their ability to affect cell viability. The same U937 cells were treated with compound in DMSO without the TSQ cocktail. This counter screen enabled evaluation of off-target effects. In this case, cell viability was measured by CelltiterGlo.

[1] = system: U937 human histiocytic leukemia cell line; test: Inhibition of TSQ induced necroptosis in U937 cells (CellTitre-Glo); details: Homo sapiens, U-937, TSQ cocktail (TNF, Smac mimetic, Q-VD-OPh), 48 hours, read-out: Inhibition of TSQ-induced necroptosis (IC50 cell-based assay)
Protocol: Cellular Assay: Screening Compounds for Inhibition of TSQ Induced Necroptosis, 384 Well Plate Format.
as §7, §8
Percent viability was calculated for each compound according to equation (2): […]
as §9, §10

human RIPK1 = human RIPK1 (Homo sapiens (Human), UniProt Q13546); test: KINOMEscan binding assay, human RIPK1; details: equilibrium dissociation constant
Chain of human RIPK1 (Q13546 whole entry): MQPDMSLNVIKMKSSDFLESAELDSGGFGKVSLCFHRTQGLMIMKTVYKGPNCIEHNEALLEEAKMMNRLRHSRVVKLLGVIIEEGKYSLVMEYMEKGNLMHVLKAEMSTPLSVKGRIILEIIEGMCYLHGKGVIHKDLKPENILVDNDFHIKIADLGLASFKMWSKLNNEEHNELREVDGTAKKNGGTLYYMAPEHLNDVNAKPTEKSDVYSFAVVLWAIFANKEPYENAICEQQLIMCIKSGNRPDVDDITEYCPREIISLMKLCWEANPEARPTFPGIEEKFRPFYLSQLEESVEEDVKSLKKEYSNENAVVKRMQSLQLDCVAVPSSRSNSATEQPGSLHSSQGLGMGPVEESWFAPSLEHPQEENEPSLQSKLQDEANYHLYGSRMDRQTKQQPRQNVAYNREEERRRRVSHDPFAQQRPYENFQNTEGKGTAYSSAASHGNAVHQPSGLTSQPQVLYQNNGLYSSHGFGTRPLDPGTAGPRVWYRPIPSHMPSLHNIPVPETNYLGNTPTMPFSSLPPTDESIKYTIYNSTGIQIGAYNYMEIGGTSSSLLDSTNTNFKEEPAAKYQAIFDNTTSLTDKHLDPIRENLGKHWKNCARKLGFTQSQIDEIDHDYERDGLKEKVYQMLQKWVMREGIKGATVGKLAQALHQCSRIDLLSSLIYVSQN
Protocol: as §1, §2, §3, §4, §5, §6

human MLKL (full length) = human MLKL (full length) (Homo sapiens (Human), UniProt Q8NB16); test: KINOMEscan binding assay, human MLKL (full length); details: equilibrium dissociation constant
Chain of human MLKL (full length) (Q8NB16 whole entry): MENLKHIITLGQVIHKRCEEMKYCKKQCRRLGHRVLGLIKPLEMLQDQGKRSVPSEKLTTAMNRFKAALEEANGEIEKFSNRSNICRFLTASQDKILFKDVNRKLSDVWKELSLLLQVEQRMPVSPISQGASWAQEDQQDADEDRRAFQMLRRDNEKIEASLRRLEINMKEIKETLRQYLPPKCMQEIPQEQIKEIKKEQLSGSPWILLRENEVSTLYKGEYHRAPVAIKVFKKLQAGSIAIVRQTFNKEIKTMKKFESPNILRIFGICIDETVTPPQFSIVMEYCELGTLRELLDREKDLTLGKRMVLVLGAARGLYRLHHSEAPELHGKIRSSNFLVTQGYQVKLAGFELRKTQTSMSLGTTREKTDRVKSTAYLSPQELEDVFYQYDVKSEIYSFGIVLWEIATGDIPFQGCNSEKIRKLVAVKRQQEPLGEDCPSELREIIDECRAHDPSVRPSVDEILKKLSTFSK
Protocol: as §1, §2, §3, §4, §5, §6

Chain of human RIPK3 (Q9Y572 whole entry): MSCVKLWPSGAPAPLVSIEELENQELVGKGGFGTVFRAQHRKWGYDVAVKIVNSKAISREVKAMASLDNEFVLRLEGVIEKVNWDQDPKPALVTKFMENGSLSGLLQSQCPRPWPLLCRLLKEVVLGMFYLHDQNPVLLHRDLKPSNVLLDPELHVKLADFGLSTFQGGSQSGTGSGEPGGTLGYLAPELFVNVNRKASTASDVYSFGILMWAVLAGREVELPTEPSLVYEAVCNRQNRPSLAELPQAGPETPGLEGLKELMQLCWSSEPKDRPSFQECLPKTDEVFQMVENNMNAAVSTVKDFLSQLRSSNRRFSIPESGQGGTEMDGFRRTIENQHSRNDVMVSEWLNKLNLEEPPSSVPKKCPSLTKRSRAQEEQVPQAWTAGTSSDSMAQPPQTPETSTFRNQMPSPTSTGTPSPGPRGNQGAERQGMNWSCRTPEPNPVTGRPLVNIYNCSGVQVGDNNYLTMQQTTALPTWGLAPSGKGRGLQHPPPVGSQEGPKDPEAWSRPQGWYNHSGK

| Compound | Kd (human RIPK3) [µM] | Kd (human RIPK1) [µM] | Kd (human MLKL (full length)) [µM] | IC50 (U937 cells) [µM] | IC50 [1] [µM] |
| --- | --- | --- | --- | --- | --- |
| CCS(=O)(=O)Nc1ccc(-c2nn(C)c3c(-c4cccnc4)cnc(N)c23)cc1OCc1ccc(F)cc1 [Compound 1, N-(4-(4-amino-1-methyl-7-(pyridin-3-yl)-1H-pyrazolo[4,3-c]pyridin-3-yl)-2-((4-fluorobenzyl)oxy)phenyl)ethanesulfonamide] | > 10 | > 10 | – | > 10 | 1 to 10 |
| Cn1nc(-c2ccc(NS(=O)(=O)C(F)F)c(OCc3ccc(F)cc3)c2)c2c(N)ncc(-c3cnn(CCO)c3)c21 [Compound 12, N-(4-(4-amino-7-(1-(2-hydroxyethyl)-1H-pyrazol-4-yl)-1-methyl-1H-pyrazolo[4,3-c]pyridin-3-yl)-2-((4-fluorobenzyl)oxy)phenyl)-1,1-difluoromethanesulfonamide] | – | – | – | > 10 | 1 to 10 |
| Cn1nc(-c2ccc(NS(=O)(=O)C(F)F)c(OCc3ccc(F)cc3)c2)c2c(N)ncc(-c3ccncc3)c21 [Compound 14, N-(4-(4-amino-1-methyl-7-(pyridin-4-yl)-1H-pyrazolo[4,3-c]pyridin-3-yl)-2-((4-fluorobenzyl)oxy)phenyl)-1,1-difluoromethanesulfonamide] | – | – | – | > 10 | 1 to 10 |
| Cc1cnccc1-c1cnc(N)c2c(-c3ccc(NS(=O)(=O)C(F)F)c(O[C@@H](C)c4ccc(F)cc4)c3)nn(C)c12 [Compound 32, (S)-N-(4-(4-amino-1-methyl-7-(3-methylpyridin-4-yl)-1H-pyrazolo[4,3-c]pyridin-3-yl)-2-(1-(4-fluorophenyl)ethoxy)phenyl)-1,1-difluoromethanesulfonamide] | – | – | – | > 10 | 1 to 10 |
| CCS(=O)(=O)Nc1ccc(-c2cccc3[nH]nc(N)c23)cc1OCc1ccc(F)cc1 [Compound 62, N-(4-(3-Amino-1H-indazol-4-yl)-2-((4-fluorophenyl)methoxy)phenyl)ethane-1-sulfonamide] | – | – | – | > 10 | 1 to 10 |
| C[C@H](Oc1cc(-c2nn(C)c3c(-c4cnn(C5CCOCC5)c4)cnc(N)c23)ccc1NS(=O)(=O)N(C)C)c1ccc(F)cc1 [Compound 124] | > 10 | > 10 | 0.1 to 10 | – | – |
| C[C@H](Oc1cc(-c2nn(C)c3c(-c4cnn(C5CCOCC5)c4)cnc(N)c23)ccc1NS(=O)(=O)Cc1ccccc1)c1ccc(F)cc1 [Compound 125, (S)-N-(4-(4-amino-1-methyl-7-(1-(tetrahydro-2H-pyran-4-yl)-1H-pyrazol-4-yl)-1H-pyrazolo[4,3-c]pyridin-3-yl)-2-(1-(4-fluorophenyl)ethoxy)phenyl)-1-phenylmethanesulfonamide] | > 10 | > 10 | 0.001 to 0.1 | – | – |
| COc1ccc([C@H](C)Oc2cc(-c3nn(C)c4c(-c5cnn(C6CCOCC6)c5)cnc(N)c34)ccc2NS(=O)(=O)C(F)F)cc1 [Compound 129, (S)-N-(4-(4-amino-1-methyl-7-(1-(tetrahydro-2H-pyran-4-yl)-1H-pyrazol-4-yl)-1H-pyrazolo[4,3-c]pyridin-3-yl)-2-(1-(4-methoxyphenyl)ethoxy)phenyl)-1,1-difluoromethanesulfonamide] | – | – | – | > 10 | 0.01 to 1 |
| Cn1nc(-c2ccc(NS(=O)(=O)C(F)F)c(OCc3ccc(Cl)cn3)c2)c2c(N)ncc(-c3cnn(C4CCOCC4)c3)c21 [Compound 136, N-(4-(4-amino-1-methyl-7-(1-(tetrahydro-2H-pyran-4-yl)-1H-pyrazol-4-yl)-1H-pyrazolo[4,3-c]pyridin-3-yl)-2-((5-chloropyridin-2-yl)methoxy)phenyl)-1,1-difluoromethanesulfonamide] | – | – | – | > 10 | 0.01 to 1 |
| C[C@H](Oc1cc(-c2nn(C)c3c(-c4cnn(C5CCC(C(=O)O)CC5)c4)cnc(N)c23)ccc1NS(=O)(=O)C(F)F)c1ccc(F)cc1 (stereo partly drawn) [Compound 173, 4-(4-{4-amino-3-[4-(difluoromethanesulfonamido)-3-[(1S)-1-(4-fluorophenyl)ethoxy]phenyl]-1-methyl-1H-pyrazolo[4,3-c]pyridin-7-yl}-1H-pyrazol-1-yl)cyclohexane-1-carboxylic acid] | – | – | – | > 10 | 1 to 10 |

Continued, in another order:

| Kd (human RIPK3) [µM] | Kd (human RIPK1) [µM] | Kd (human MLKL (full length)) [µM] | Compound | IC50 (U937 cells) [µM] | IC50 [1] [µM] |
| --- | --- | --- | --- | --- | --- |
| > 10 | > 10 | 0.001 to 0.1 | C[C@H](Oc1cc(-c2nn(C)c3c(-c4cnn(C5CCOCC5)c4)cnc(N)c23)ccc1NS(=O)(=O)C(F)F)c1ccccc1F [Compound 118, (S)-N-(4-(4-amino-1-methyl-7-(1-(tetrahydro-2H-pyran-4-yl)-1H-pyrazol-4-yl)-1H-pyrazolo[4,3-c]pyridin-3-yl)-2-(1-(2-fluorophenyl)ethoxy)phenyl)-1,1-difluoromethanesulfonamide] | – | – |
| > 10 | > 10 | < 0.001 | Cn1nc(-c2ccc(NS(=O)(=O)C(F)F)c(OCc3cccc(Cl)c3)c2)c2c(N)ncc(-c3cnn(C4CCOCC4)c3)c21 [Compound 130, N-(4-(4-amino-1-methyl-7-(1-(tetrahydro-2H-pyran-4-yl)-1H-pyrazol-4-yl)-1H-pyrazolo[4,3-c]pyridin-3-yl)-2-((3-chlorobenzyl)oxy)phenyl)-1,1-difluoromethanesulfonamide] | – | – |
| > 10 | > 10 | < 0.001 | Cn1nc(-c2ccc(NS(=O)(=O)C(F)F)c(OCc3nccs3)c2)c2c(N)ncc(-c3cnn(C4CCOCC4)c3)c21 [Compound 143, N-(4-(4-amino-1-methyl-7-(1-(tetrahydro-2H-pyran-4-yl)-1H-pyrazol-4-yl)-1H-pyrazolo[4,3-c]pyridin-3-yl)-2-(thiazol-2-ylmethoxy)phenyl)-1,1-difluoromethanesulfonamide] | – | – |
| > 10 | > 10 | < 0.001 | CC(C)Oc1cc(-c2nn(C)c3c(-c4cnn(C5CCOCC5)c4)cnc(N)c23)ccc1NS(=O)(=O)C(F)F [Compound 144, N-(4-(4-amino-1-methyl-7-(1-(tetrahydro-2H-pyran-4-yl)-1H-pyrazol-4-yl)-1H-pyrazolo[4,3-c]pyridin-3-yl)-2-isopropoxyphenyl)-1,1-difluoromethanesulfonamide] | – | – |
| > 10 | > 10 | < 0.001 | Cn1nc(-c2ccc(NS(=O)(=O)C(F)F)c(OCc3ncco3)c2)c2c(N)ncc(-c3cnn(C4CCOCC4)c3)c21 [Compound 151, N-(4-(4-amino-1-methyl-7-(1-(tetrahydro-2H-pyran-4-yl)-1H-pyrazol-4-yl)-1H-pyrazolo[4,3-c]pyridin-3-yl)-2-(oxazol-2-ylmethoxy)phenyl)-1,1-difluoromethanesulfonamide] | – | – |

From patent US20250059188A1, “ARYLSULPHONAMIDE COMPOUNDS” (Anaxis Pharma Pty Ltd, priority 2021, published 2025)
